# According to patent publication US8148391B2 (Cephalon, Inc., priority 2006, dated 2012):
# Read-outs that look alike come from different tables or passages of the source.
# Key:
# [1] = target: T1, baculovirus-expressed ALK (Homo sapiens, UniProt Q9UM73); test: ALK Kinase Assay (ELISA-type, time-resolved fluorescence); assay type: biochemical
# T1 construct: host or cells: baculovirus expression system
# Outline: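 Wells were coated with phospholipase C-γ at 10 μg/mL in Tris-buffered saline. Adding 30 ng/ml enzyme started the reaction, which ran at 37° C for 15 minutes before Eu-N1 PT66 antibody detection. Percent inhibition versus log10 concentration gave IC50 by variable-slope fit.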
# [2] = target: T2, c-Met (cytoplasmic domain) (Homo sapiens, UniProt P08581); test: c-Met Kinase Assay (same methods as for ALK, with modifications); assay type: biochemical
# T2 construct: 10 ng/mL c-Met (cytoplasmic domain, Invitrogen Corporation #PV3143); purchased Invitrogen Corporation PV3143
# T2 sequence (P08581 956-1390 limits assumed): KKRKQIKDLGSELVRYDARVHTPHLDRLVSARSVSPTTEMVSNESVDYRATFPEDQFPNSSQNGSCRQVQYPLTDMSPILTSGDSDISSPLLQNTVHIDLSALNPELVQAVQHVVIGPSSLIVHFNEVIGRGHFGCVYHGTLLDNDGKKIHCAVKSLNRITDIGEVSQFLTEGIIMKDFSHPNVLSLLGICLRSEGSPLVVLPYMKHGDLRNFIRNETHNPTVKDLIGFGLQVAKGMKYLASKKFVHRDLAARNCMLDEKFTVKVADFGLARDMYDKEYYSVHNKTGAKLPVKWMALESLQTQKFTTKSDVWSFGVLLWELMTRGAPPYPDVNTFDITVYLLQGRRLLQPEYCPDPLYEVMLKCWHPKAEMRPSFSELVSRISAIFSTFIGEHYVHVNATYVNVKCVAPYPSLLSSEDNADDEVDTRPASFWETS
# Outline: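 IC50 values were fitted by variable-slope sigmoidal regression of percent inhibition against log compound concentration. Phosphorylation was read with Eu-N1 PT66 antibody after a 15 min, 37 °C reaction. The reaction was initiated with 10 ng/mL c-Met cytoplasmic domain on wells coated with 10 μg/mL PLC-γ in TBS.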
# [3] = ALK kinase inhibition, 1 μM ATP, read-out: ALK Activity
# [4] = c-Met kinase inhibition, 1 μM ATP, read-out: cMet Activity
# [5] = ALK kinase inhibition, 1 μM ATP (Km level), read-out: ALK Activity
# [6] = c-Met kinase inhibition, 1 μM ATP (Km level), read-out: cMet Activity
# [7] = 1 μM ATP (Km level), read-out: ALK Activity (ALK Kinase Inhibition, IC50)
# [8] = 1 μM ATP (Km level), read-out: cMet Activity (c-Met Kinase Inhibition, IC50)
# [9] = 1 μM ATP (Km level), 30 ng/ml ALK, 37° C., 15 minutes, read-out: ALK Activity (ALK kinase inhibition, IC50 class)
# [10] = 1 μM ATP (Km level), 10 ng/mL c-Met, read-out: cMet Activity (c-Met kinase inhibition, IC50 class)
# T1 sequence (Q9UM73 19-1620): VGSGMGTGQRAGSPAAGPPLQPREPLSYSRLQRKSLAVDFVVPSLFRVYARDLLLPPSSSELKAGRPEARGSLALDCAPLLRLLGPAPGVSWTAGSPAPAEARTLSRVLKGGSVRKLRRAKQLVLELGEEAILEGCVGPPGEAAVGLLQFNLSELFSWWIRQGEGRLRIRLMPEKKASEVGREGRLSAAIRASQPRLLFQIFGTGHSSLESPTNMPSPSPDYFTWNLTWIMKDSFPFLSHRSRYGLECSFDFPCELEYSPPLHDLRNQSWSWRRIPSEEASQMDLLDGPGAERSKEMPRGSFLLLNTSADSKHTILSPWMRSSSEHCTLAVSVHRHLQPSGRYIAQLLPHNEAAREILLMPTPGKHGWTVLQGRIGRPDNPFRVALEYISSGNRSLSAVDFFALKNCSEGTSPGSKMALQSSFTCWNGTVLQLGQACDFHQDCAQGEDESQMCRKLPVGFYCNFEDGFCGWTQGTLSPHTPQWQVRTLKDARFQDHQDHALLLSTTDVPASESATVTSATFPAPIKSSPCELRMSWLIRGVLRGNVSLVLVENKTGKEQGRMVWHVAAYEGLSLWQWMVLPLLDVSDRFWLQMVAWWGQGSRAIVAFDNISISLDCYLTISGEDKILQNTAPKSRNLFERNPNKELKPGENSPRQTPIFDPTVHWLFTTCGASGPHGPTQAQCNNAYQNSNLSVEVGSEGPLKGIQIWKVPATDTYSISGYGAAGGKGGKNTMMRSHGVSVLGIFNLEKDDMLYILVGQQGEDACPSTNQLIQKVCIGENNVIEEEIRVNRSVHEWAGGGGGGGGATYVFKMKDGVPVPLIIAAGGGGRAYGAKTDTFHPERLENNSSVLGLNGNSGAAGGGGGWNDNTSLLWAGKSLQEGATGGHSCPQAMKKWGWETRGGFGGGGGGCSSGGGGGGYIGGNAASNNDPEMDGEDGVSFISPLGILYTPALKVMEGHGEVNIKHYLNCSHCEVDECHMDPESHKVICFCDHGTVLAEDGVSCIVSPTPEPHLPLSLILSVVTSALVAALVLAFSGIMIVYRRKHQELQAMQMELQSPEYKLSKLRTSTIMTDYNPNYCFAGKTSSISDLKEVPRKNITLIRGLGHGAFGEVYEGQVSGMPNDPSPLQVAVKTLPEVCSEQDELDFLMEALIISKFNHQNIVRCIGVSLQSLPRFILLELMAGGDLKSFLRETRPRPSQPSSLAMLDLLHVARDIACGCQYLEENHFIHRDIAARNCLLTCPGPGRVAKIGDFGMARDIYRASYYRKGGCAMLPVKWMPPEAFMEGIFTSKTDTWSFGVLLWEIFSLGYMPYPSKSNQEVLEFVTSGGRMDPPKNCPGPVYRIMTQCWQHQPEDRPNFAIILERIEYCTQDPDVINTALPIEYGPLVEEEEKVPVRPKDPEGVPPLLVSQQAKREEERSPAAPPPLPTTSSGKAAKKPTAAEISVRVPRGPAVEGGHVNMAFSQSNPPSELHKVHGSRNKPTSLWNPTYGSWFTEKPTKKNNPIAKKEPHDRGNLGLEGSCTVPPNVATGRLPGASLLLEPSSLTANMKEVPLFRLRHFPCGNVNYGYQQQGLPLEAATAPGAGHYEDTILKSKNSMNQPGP
"IC50 [1, 3]","IC50 [2, 4]","IC50 [1, 9]","IC50 [2, 10]",Compound,further results
> 10000 nM,100 to 1000 nM,–,–,"CNC(=O)c1cccc(OC(F)(F)F)c1Nc1nc(Nc2ccc3c(c2)CCOC(=O)N3C)ncc1Cl [Example 1773, 2-[5-Chloro-2-(5-methyl-6-oxo-5,6,8,9-tetrahydro-7-oxa-5-aza-benzocyclohepten-2-ylamino)-pyrimidin-4-ylamino]-N-methyl-3-trifluoromethoxy-benzamide]",–
–,–,–,–,"CNC(=O)c1ccccc1Nc1nc(Nc2ccc3c(c2)CN(CCOC)CCN3C)ncc1Cl [Example 432, 2-{5-Chloro-2-[4-(2-methoxy-ethyl)-1-methyl-2,3,4,5-tetrahydro-1H-benzo[e][1,4]diazepin-7-ylamino]-pyrimidin-4-ylamino}-N-methyl-benzamide]","IC50 [1, 5]: < 100 nM; IC50 [2, 6]: < 100 nM"
–,–,–,–,"CC1(C)CCCOc2c(Nc3ncc(Cl)c(N[C@@H]4[C@H](C(N)=O)[C@H]5C=C[C@@H]4C5)n3)cccc21 [Example 870, (1R,2R,3S,4S)-3-[5-Chloro-2-(5,5-dimethyl-2,3,4,5-tetrahydro-benzo[b]oxepin-9-ylamino)-pyrimidin-4-ylamino]-bicyclo[2.2.1]hept-5-ene-2-carboxylic acid amide]","IC50 [1, 7]: 100 to 1000 nM; IC50 [2, 8]: > 10000 nM"
< 100 nM,< 100 nM,–,–,"CCN1C(=O)CCC(C)(C)c2ccc(Nc3ncc(Cl)c(Nc4ccccc4S(=O)(=O)N(C)C)n3)cc21 [Example 1595, 2-[5-Chloro-2-(1-ethyl-5,5-dimethyl-2-oxo-2,3,4,5-tetrahydro-1H-benzo[b]azepin-8-ylamino)-pyrimidin-4-ylamino]-N,N-dimethyl-benzenesulfonamide]",–
–,–,–,–,"COc1c(Nc2ncc(Cl)c(Nc3ccccc3S(=O)(=O)N3CCC(O)C3)n2)ccc2c1CCC(NCCO)CC2 (centres unmarked) [Example 703, 1-(2-{5-Chloro-2-[7-(2-hydroxy-ethylamino)-1-methoxy-6,7,8,9-tetrahydro-5H-benzocyclohepten-2-ylamino]-pyrimidin-4-ylamino}-benzenesulfonyl)-pyrrolidin-3-ol]","IC50 [1, 7]: < 100 nM; IC50 [2, 8]: 100 to 1000 nM"
100 to 1000 nM,> 10000 nM,–,–,"CCN1CCCOc2cc(Nc3ncc(Cl)c(Nc4ccc(N5CCOCC5)cc4OC)n3)c(F)cc21 [Example 1688, 5-Chloro-N*2*-(9-ethyl-2-fluoro-6,7,8,9-tetrahydro-5-oxa-9-aza-benzocyclohepten-3-yl)-N*4*-(2-methoxy-4-morpholin-4-yl-phenyl)-pyrimidine-2,4-diamine]",–
–,–,100 to 1000 nM,100 to 1000 nM,"CNC(=O)c1sccc1Nc1nc(Nc2ccc3c(c2)OCCCN3C(=O)OC(C)C)ncc1Cl [Example 1435, 3-[5-Chloro-4-(2-methylcarbamoyl-thiophen-3-ylamino)-pyrimidin-2-ylamino]-7,8-dihydro-6H-5-oxa-9-aza-benzocycloheptene-9-carboxylic acid isopropyl ester]",–
100 to 1000 nM,1000 to 10000 nM,–,–,"CNC(=O)c1ccc2c(c1Nc1nc(Nc3ccc4c(c3)NC(=O)CCC4)ncc1Cl)OCO2 [Example 1482, 4-[5-Chloro-2-(2-oxo-2,3,4,5-tetrahydro-1H-benzo[b]azepin-8-ylamino)-pyrimidin-4-ylamino]-benzo[1,3]dioxole-5-carboxylic acid methylamide]",–
–,–,< 100 nM,1000 to 10000 nM,"COCCNC1CCc2cc(Nc3ncc(Cl)c(Nc4ccccc4S(=O)(=O)N4CCC(O)C4)n3)c(OC)cc2CC1 (centres unmarked) [Example 1082, 1-(2-{5-Chloro-2-[3-methoxy-7-(2-methoxy-ethylamino)-6,7,8,9-tetrahydro-5H-benzocyclohepten-2-ylamino]-pyrimidin-4-ylamino}-benzenesulfonyl)-pyrrolidin-3-ol]",–
–,–,–,–,"COc1cc(N2CCOCC2)ccc1Nc1nc(Nc2ccc(OC)c3c2N(C)C(=O)CCC3)ncc1Cl [Example 124, 9-[5-Chloro-4-(2-methoxy-4-morpholin-4-yl-phenylamino)-pyrimidin-2-ylamino]-6-methoxy-1-methyl-1,3,4,5-tetrahydro-benzo[b]azepin-2-one]","IC50 [1, 5]: < 100 nM; IC50 [2, 6]: > 10000 nM"
< 100 nM,< 100 nM,–,–,"CCN1CC(N2CCOCC2)COc2ccc(Nc3ncc(Cl)c(Nc4c(F)cccc4C(=O)NC)n3)cc21 (centres unmarked) [Example 1722, 2-[5-Chloro-2-(9-ethyl-7-morpholin-4-yl-6,7,8,9-tetrahydro-5-oxa-9-aza-benzocyclohepten-2-ylamino)-pyrimidin-4-ylamino]-3-fluoro-N-methyl-benzamide]",–
–,–,< 100 nM,< 100 nM,"CNC(=O)c1ccccc1Nc1nc(Nc2ccc3c(c2)CNC(=O)CCN3C(=O)C(F)(F)F)ncc1Cl [Example 1301, 2-{5-Chloro-2-[4-oxo-1-(2,2,2-trifluoro-acetyl)-1,2,3,4,5,6-hexahydro-benzo[b][1,5]diazocin-8-ylamino]-pyrimidin-4-ylamino}-N-methyl-benzamide]",–
–,–,< 100 nM,> 10000 nM,"CCN1C(=O)CCCc2cc(Nc3ncc(Cl)c(Nc4ccc(N(C)C)cc4OC)n3)c(OC)cc21 [Example 1340, 7-[5-Chloro-4-(4-dimethylamino-2-methoxy-phenylamino)-pyrimidin-2-ylamino]-1-ethyl-8-methoxy-1,3,4,5-tetrahydro-benzo[b]azepin-2-one]",–
–,–,–,–,"CCN1C(=O)CCCc2cc(Nc3ncc(Cl)c(Nc4ccc(OC)cc4-n4cccn4)n3)c(OC)cc21 [Example 614, 7-[5-Chloro-4-(4-methoxy-2-pyrazol-1-yl-phenylamino)-pyrimidin-2-ylamino]-1-ethyl-8-methoxy-1,3,4,5-tetrahydro-benzo[b]azepin-2-one]","IC50 [1, 7]: < 100 nM; IC50 [2, 8]: > 10000 nM"
–,–,–,–,"CS(=O)(=O)N[C@@H]1CCCC[C@H]1Nc1nc(Nc2ccc3c(c2)CNC(=O)NC3)ncc1Cl [Example 226, N-{(1R,2R)-2-[5-Chloro-2-(3-oxo-2,3,4,5-tetrahydro-1H-benzo[e][1,3]diazepin-7-ylamino)-pyrimidin-4-ylamino]-cyclohexyl}-methanesulfonamide]","IC50 [1, 5]: < 100 nM; IC50 [2, 6]: 1000 to 10000 nM"
< 100 nM,100 to 1000 nM,–,–,"CCN1CC(O)(CO)COc2ccc(Nc3ncc(Cl)c(Nc4c(F)cccc4C(=O)NC)n3)cc21 (centres unmarked) [Example 1720, 2-[5-Chloro-2-(9-ethyl-7-hydroxy-7-hydroxymethyl-6,7,8,9-tetrahydro-5-oxa-9-aza-benzocyclohepten-2-ylamino)-pyrimidin-4-ylamino]-3-fluoro-N-methyl-benzamide]",–
–,–,< 100 nM,> 10000 nM,"CCN1C(=O)[C@@H](NC(=O)CN(C)C)CCc2c1ccc(Nc1ncc(Cl)c(N[C@H]3[C@@H](C(N)=O)[C@@H]4C=C[C@H]3C4)n1)c2OC (single isomer, unassigned) [Example 1355]",–
100 to 1000 nM,100 to 1000 nM,–,–,"CNC(=O)c1ccccc1Nc1nc(Nc2ccc3c(c2)N(C(=O)CN2CCCC2)CCCO3)ncc1Cl [Example 1706, 2-{5-Chloro-2-[9-(2-pyrrolidin-1-yl-acetyl)-6,7,8,9-tetrahydro-5-oxa-9-aza-benzocyclohepten-2-ylamino]-pyrimidin-4-ylamino}-N-methyl-benzamide]",–
–,–,< 100 nM,< 100 nM,"CCN1C(=O)CCC(C)(C)c2ccc(Nc3ncc(Cl)c(Nc4ccccc4S(=O)(=O)C(C)C)n3)cc21 [Example 1243, 8-{5-Chloro-4-[2-(propane-2-sulfonyl)-phenylamino]-pyrimidin-2-ylamino}-1-ethyl-5,5-dimethyl-1,3,4,5-tetrahydro-1-benzazepin-2-one]",–
